Read-outs that look alike come from different tables or passages of the source.
Tests used:
[1] = Average particle size and polydispersity index of lipid nanoparticles (dynamic light scattering); assay type: physicochemical
Protocol: (§1) The average particle size (number average value), ζ-average particle size, and polydispersity index (PdI) of the lipid nanoparticles in PBS(-) (pH 7.4), and the zeta potential in 10 mM HEPES buffer (pH 7.4) were measured using an analyzer "Zetasizer Nano ZS ZEN3600" (manufactured by Malvern) utilizing dynamic light scattering.

[2] = Zeta potential of lipid nanoparticles; assay type: physicochemical
Protocol: as §1

[3] = Encapsulation rate of lipid nanoparticles (Ribogreen); assay type: physicochemical
Protocol: The encapsulation rate of the lipid nanoparticles was determined by measuring the amount of encapsulated nucleic acid (mRNA) using Ribogreen (manufactured by Life Technologies), which is an RNA intercalator. The mRNA amount was quantified based on a calibration curve prepared from a series of diluted mRNA solutions at known concentrations.
Specifically, 10 mM HEPES buffer (pH 7.4), 10 w/v% Triton X-100, and Ribogreen were mixed at 978.8 µL, 20 µL, and 1.25 µL per 10 wells, respectively, to obtain a Triton(+) buffer. A Triton(-) buffer was obtained in replacing Triton X-100 with 10 mM HEPES buffer (pH 7.4). 100 µL/well of the sample was added to a black 96-well plate for fluorescence measurement, and 100 µL/well of Triton(+) buffer or Triton(-) buffer was added. After the plate was gently shaken on a shaking incubator (SI-300, manufactured by AS ONE) (700 rpm, 30 seconds), the fluorescence intensity of each well was measured using a microplate reader (VARIOSKAN LUX, manufactured by Thermo Fisher Scientific) (wavelength Ex/Em=500 nm/525 nm), and the nucleic acid encapsulation rate (%) was calculated.

liver [4] = assay: EGFP expression in liver tissue sections of mice administered EGFP mRNA-loaded lipid nanoparticles (confocal microscopy); assay type: in vivo, Balb/c mice; details: Example 27, Fig. 6; EGFP mRNA-loaded lipid nanoparticles TxT/DSPC/chol/PEG-DMG=50/3/47/1.5 (mol%); 24 hours post-administration
Protocol: Subsequently, each EGFP mRNA-loaded lipid nanoparticle was administered to Balb/c mice at a dose of 0.2 mg mRNA/kg. At 23 hours and 50 minutes post-administration, fluorescently labeled lectin (DyLight-649 Lycopersicon (Tomato) Lectin) was intravenously injected via the tail vein at 40 µg/mouse to fluorescently label vascular endothelial cells. At 24 hours after administration of the lipid nanoparticles, the mice were euthanized, and their livers were collected to prepare tissue sections. For nuclear staining, the tissue sections were immersed in a nuclear staining solution (1 µg/mL Hoechst 33342 dissolved in PBS(-)), cooled on ice, and incubated for at least 30 minutes in the dark. The stained tissue sections were then observed using a confocal laser scanning microscope. Subsequently, in the same manner as Example 26, each EGFP mRNA-loaded lipid nanoparticle was administered to Balb/c mice. At 23 hours and 50 minutes post-administration, fluorescently labeled lectin was administered. At 24 hours after administration of the lipid nanoparticles, the mice were euthanized, and their livers were collected to prepare tissue sections. Each tissue section was observed using a confocal laser scanning microscope. In the figure, the upper panels show fluorescence images of EGFP, and the lower panels show fluorescence images of vascular endothelial cells (fluorescently labeled lectin).

[5] = lipid nanoparticles, tns
liver [6] = assay: Fluc activity in the liver of mice administered Fluc mRNA-loaded lipid nanoparticles; assay type: in vivo, BALB/c mice; details: Example 31, Fig. 10; Fluc mRNA-loaded lipid nanoparticles containing 3 mol% DSPC; N = 3
Protocol: (§2) Lipid nanoparticles were administered to mice by intravenous injection into the tail vein using a 27G needle. Unless otherwise specified, BALB/c mice (4 to 5 weeks old, female) were used.
(§3) First, BALB/c mice (female, 4 weeks old) were intravenously injected with lipid nanoparticles encapsulating Fluc mRNA (Fluc mRNA-loaded lipid nanoparticles) at a dose of 0.1 mg mRNA/kg. Six hours after intravenous injection, the mice were euthanized, each tissue was collected, frozen in liquid nitrogen, and stored at -80°C. The tissues were homogenized in passive lysis buffer (manufactured by Promega) using a bead-type cell disruptor (Micro Smash MS-100R, manufactured by TOMY Seiko). Tissue debris was removed by centrifugation, and the supernatant was collected. Fluc activity in the supernatant was measured using the Luciferase Assay System (E1500, manufactured by Promega) according to the manufacturer's protocol. Luminescence was measured using a luminometer (Luminescencer-PSN, manufactured by ATTO). Protein concentration was determined using a commercially available assay kit (BCA Protein Assay Kit, manufactured by Pierce). Fluc activity was expressed as relative light units (RLU) per mg of protein.
Subsequently, lipid nanoparticles encapsulating Fluc mRNA prepared using TxT-5-5A10, TxT-5-5A12, TxT-5-5A12β, TxT-5-5A14, and TxT-5-5A16 were administered to mice to evaluate luciferase expression levels (Fluc activity) in various tissues. Specifically, each Fluc mRNA-loaded lipid nanoparticle was administered to Balb/c mice at a dose of 0.1 mg mRNA/kg. Six hours after administration, the mice were euthanized, and their organs were collected to measure Fluc activity (RLU/mg protein) (N = 2 or 4).

various tissues = assay: Fluc activity in various tissues of mice administered Fluc mRNA-loaded lipid nanoparticles; assay type: in vivo, BALB/c mice; details: Example 31, Fig. 10; Fluc mRNA-loaded lipid nanoparticles containing 3 mol% DSPC; N = 3
Protocol: as §2
as §3, with “protein. […]” for “protein.”

factor VII (F7) = details: mouse liver; siRNA; cited from earlier work
[7] = Apparent pKa of lipid nanoparticles (TNS)
spleen = assay: Fluc activity in the spleen of mice administered Fluc mRNA-loaded lipid nanoparticles; assay type: in vivo, BALB/c mice; details: Example 22, Fig. 1; TxT/DSPC/chol/PEG-DMG=50/15/35/1.5 (mol%); 0.1 mg mRNA/kg intravenous; six hours after administration; comparison among TxT lipids
Protocol: as §2
as §3, with “protein. […]” for “protein.”

[8] = Table 3, Fluc mRNA-loaded lipid nanoparticles, TxT/DSPC/chol/PEG-DMG=50/3/47/1.5 (mol%)
[9] = Table 5, EGFP mRNA-loaded lipid nanoparticles, TxT/DSPC/chol/PEG-DMG=50/3/47/1.5 (mol%), total flow rate 3.0 mL/min
[10] = Table 8 (Example 32), lipid nanoparticles for TTR-targeted genome editing, Cas9-mRNA and TTR-gRNA 1:2 (N/P = 6.0), TxT/DSPC/chol/PEG-DMG = 50/3/47/1.5 (mol%)
[11] = Table 4, Fluc mRNA-loaded lipid nanoparticles, TxT-5-5A14/DSPC/chol/PEG-DMG=50/3/47/1.5, SM-102, ALC-0315 or MC3/DSPC/chol/PEG-DMG=50/10/40/1.5 (mol%)
[12] = Table 1, Fluc mRNA-loaded lipid nanoparticles, TxT/DSPC/chol/PEG-DMG=50/15/35/1.5 (mol%)

| Pdl [1, 8] | number average particle size [1, 8] | ζ-average particle size [1, 8] | Pdl [1, 9] | number average particle size [1, 9] | ζ-average particle size [1, 9] | ζ-potential [2, 8] | ζ-potential [2, 9] | mRNA concentration [3, 8] | mRNA encapsulation rate [3, 8] | mRNA concentration [3, 9] | mRNA encapsulation rate [3, 9] | pKa [5] | Molecule | fluorescence of EGFP in the liver tissues (liver [4]) | ED50 in factor VII (F7) knockdown (factor VII (F7)) | other results |
| --- | --- | --- | --- | --- | --- | --- | --- | --- | --- | --- | --- | --- | --- | --- | --- | --- |
| 0.14 | 92.2 nm | 133.1 nm | 0.10 | 85.3 nm | 129.5 nm | -8.9 mV | -4.2 mV | 0.022 µg/µL | 96.5% | 0.021 µg/µL | 97.3% | 6.68 | 2-(6-(didodecylamino)-2,6-dioxohexyl)-2-(3-(piperidin-1-yl)propanamido)propane-1,3-diyl bis(5-(didodecylamino)-5-oxopentanoate) [TxT-5-5A24] | fluorescence of EGFP was observed |  | average particle diameter, comparison among TxT lipids ([1]; Example 32, Table 8, lipid nanoparticles for TTR-targeted genome editing): smallest average particle diameter; Pdl [1, 10]: 0.12; number average particle size [1, 10]: 53.1 nm; ζ-average particle size [1, 10]: 73.8 nm; ζ-potential [2, 10]: -6.5 mV; mRNA concentration [3, 10]: 0.541 µg/µL; mRNA encapsulation rate [3, 10]: 98.4%; gene expression in hepatocytes (liver [4]): notably high levels of gene expression |
|  |  |  |  |  |  |  |  |  |  |  |  |  | 2-((2-(2-((diheptylamino)methyl)cyclohexyl)acetoxy)methyl)-2-(3-(piperidin-1-yl)propanamido)propane-1,3-diyl bis(2-(diheptylcarbamoyl)cyclohexane-1-carboxylate) [TxT-5-4(6)A14] |  |  | Fluc activity in the liver relative to spleen and lung (liver [6]): particularly high activity confirmed in the liver; Fluc activity in the liver, spleen, and lung (various tissues): Fluc activity was observed in the organs, i.e., liver, spleen, and lungs |
|  |  |  |  |  |  |  |  |  |  |  |  |  | CCCCC/C=C\C/C=C\CCCCCCCCC(CCCCCCCC/C=C\C/C=C\CCCCC)OC(=O)CCCN(C)C [MC3, DLin-MC3-DMA, reference compound] |  | 0.005 mg siRNA/kg | Pdl [1, 11]: 0.20; number average particle size [1, 11]: 51.8 nm; ζ-average particle size [1, 11]: 83.6 nm; ζ-potential [2, 11]: -6.8 mV; mRNA concentration [3, 11]: 0.021 µg/µL; mRNA encapsulation rate [3, 11]: 98.8%; pKa [7, 11]: 6.23 |
| 0.10 | 124.5 nm | 155.2 nm | 0.13 | 80.2 nm | 114.4 nm | -6.7 mV | -9.4 mV | 0.019 µg/µL | 85.9% | 0.019 µg/µL | 95.5% |  | CCCCCCN(CCCCCC)C(=O)CCCC(=O)OCC(COC(=O)CCCC(=O)N(CCCCCC)CCCCCC)(COC(=O)CCCC(=O)N(CCCCCC)CCCCCC)NC(=O)CCN1CCCCC1 [TxT-5-5A12, 2-(((5-(dihexylamino)-5-oxopentanoyl)oxy)methyl)-2-(3-(piperidin-1-yl)propanamido)propane-1,3-diyl bis(5-(dihexylamino)-5-oxopentanoate)] | fluorescence of EGFP was observed |  | Pdl [1, 12]: 0.08; number average particle size [1, 12]: 124.5 nm; ζ-average particle size [1, 12]: 155.2 nm; ζ-potential [2, 12]: -6.7 mV; mRNA concentration [3, 12]: 0.019 µg/µL; mRNA encapsulation rate [3, 12]: 85.9%; Fluc activity in the spleen (spleen): highest Fluc activity in the spleen; pKa ([7]; Table 1, apparent pKa of Fluc mRNA-loaded lipid nanoparticles, TxT/DSPC/chol/PEG-DMG=50/15/35/1.5 (mol%)): 6.44; pKa [7, 8]: 6.58 |
| 0.22 | 61.6 nm | 103.7 nm | 0.07 | 59.1 nm | 81.4 nm | -11.2 mV | -6.0 mV | 0.019 µg/µL | 96.0% | 0.020 µg/µL | 97.9% | 4.99 | CCCCC(CC)CN(CC(CC)CCCC)C(=O)CCCC(=O)OCC(COC(=O)CCCC(=O)N(CC(CC)CCCC)CC(CC)CCCC)(COC(=O)CCCC(=O)N(CC(CC)CCCC)CC(CC)CCCC)NC(=O)CCN1CCCCC1 (stereo not drawn) [TxT-5-5A16b] | fluorescence of EGFP was observed |  |  |
|  |  |  |  |  |  |  |  |  |  |  |  |  | CCCCC/C=C\C/C=C\CCCCCCCCOC1(OCCCCCCCC/C=C\C/C=C\CCCCC)CCN(C)CC1 [YSK05] |  | 0.06 mg siRNA/kg |  |

From patent publication EP4722195A1, “PH-SENSITIVE CATIONIC LIPID AND LIPID NANOPARTICLES” (National University Corporation Hokkaido University, priority 2023, dated 2024)
